In this assay the target is T1, Cysteinyl leukotriene receptor 1 (Cavia porcellus, UniProt Q2NNR5).
T1 sequence (Q2NNR5 whole entry): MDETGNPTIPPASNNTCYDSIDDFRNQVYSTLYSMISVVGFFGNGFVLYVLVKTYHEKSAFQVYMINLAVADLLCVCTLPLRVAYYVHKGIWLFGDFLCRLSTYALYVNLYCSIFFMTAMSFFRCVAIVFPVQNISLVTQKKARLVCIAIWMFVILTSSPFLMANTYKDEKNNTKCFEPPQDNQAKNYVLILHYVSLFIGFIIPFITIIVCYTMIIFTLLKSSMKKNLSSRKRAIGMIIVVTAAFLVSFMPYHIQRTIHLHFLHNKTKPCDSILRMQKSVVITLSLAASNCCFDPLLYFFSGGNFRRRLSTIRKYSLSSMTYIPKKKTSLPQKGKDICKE
Kind of assay: Binding affinity towards Cysteinyl leukotriene D4 receptor (cysLT1) was measured by the displacement of [3H]LTD4 radioligand. On the technique in general: In a radioligand displacement assay an active substance lowers the binding of a labelled ligand.

From ChEMBL document CHEMBL1131533, “Development of a three-dimensional CysLT1 (LTD4) antagonist model with an incorporated amino acid residue from the receptor” (J Med Chem, 1998) come the findings set out here.

By Ki is commonly meant a measure of affinity in units of concentration, obtained from inhibition or displacement. High values mean a looser hold on the target, low ones a stronger hold on the target. The compound `CCC(CC)(CC(=O)Nc1cccc(/C=C/c2nc(C3CCC3)cs2)c1)C(=O)O` had a Ki of 6.4 nM.

As usually defined, the IC50 is the concentration that inhibits the measured activity by half. Turning to `O=C(O)c1cccc2c(=O)cc(-c3cccc(/C=C/c4ccc5ccccc5n4)c3)oc12`, the IC50 was found to be 17 nM.

Turning to `O=C(Nc1cccc2c(=O)cc(-c3nn[nH]n3)oc12)c1ccc(OCc2ccc3ccccc3n2)cc1`, the Ki came out at 1.1 nM.

As for `O=c1cc(-c2nnn[nH]2)oc2cc(OCc3cccc(OCc4ccc5ccccc5n4)c3)ccc12`, the affinity, expressed as Ki, was 3 nM.

On to `O=c1cc(-c2nnn[nH]2)oc2cc(/C=C/c3cccc(OCc4ccc5ccccc5n4)c3)ccc12`, for which the Ki is 2.5 nM.
